Assay results from US5006549A, “Novel 7-aroyl-4-hydroxy-3-methyl-benzofurans as dual inhibitors of cyclooxygenase and 5-lipoxygenase” (priority 1989, dated 1991).
Like-named read-outs stand apart in the source and are kept apart here.

What was measured:
[1] = tested on: animal models of inflammation; conditions: several animal models; cited from earlier work
cyclooxygenase [2] = conditions: bovine seminal vesicle microsomal enzyme preparation; read-out: IC50 against cyclooxygenase; cited from earlier work
5-lipoxygenase = conditions: cited from earlier work
[3] = molecular target: T1, Ram seminal vesicle microsomal cyclooxygenase (Ovis aries, UniProt P05979); assay: Ram Seminal Vesicle Microsomal Cyclooxygenase Assay (RSV CO); assay type: biochemical; conditions: for IC50: RSV cyclooxygenase, mean values of at least two titrations; for activity in the CO assay: reference compounds
T1 construct: Ram seminal vesicular glands were trimed of excess fat; from tissue; host or cells: ram seminal vesicular glands, microsomes (105K×g pellet)
T1 sequence (P05979 25-600): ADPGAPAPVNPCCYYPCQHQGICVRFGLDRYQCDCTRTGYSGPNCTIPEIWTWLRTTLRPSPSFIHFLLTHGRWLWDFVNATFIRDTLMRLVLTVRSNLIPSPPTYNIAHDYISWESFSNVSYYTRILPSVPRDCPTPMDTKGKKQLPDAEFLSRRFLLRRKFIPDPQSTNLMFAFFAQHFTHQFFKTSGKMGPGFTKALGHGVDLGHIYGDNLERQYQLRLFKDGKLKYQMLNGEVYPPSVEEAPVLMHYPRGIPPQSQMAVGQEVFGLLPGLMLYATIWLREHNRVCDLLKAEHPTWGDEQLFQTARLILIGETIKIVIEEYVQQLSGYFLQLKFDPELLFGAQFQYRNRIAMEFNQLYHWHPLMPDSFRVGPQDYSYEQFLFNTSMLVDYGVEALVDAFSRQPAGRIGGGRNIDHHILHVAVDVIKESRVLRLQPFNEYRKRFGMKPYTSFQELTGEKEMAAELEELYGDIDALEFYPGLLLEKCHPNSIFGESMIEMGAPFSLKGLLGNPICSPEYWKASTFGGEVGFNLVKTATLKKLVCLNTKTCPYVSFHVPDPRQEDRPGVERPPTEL
Procedure: Compounds of formula I were also evaluated in accordance with the ram seminal vesicle microsomal cyclooxygenase (RSV CO) assay.
Ram Seminal Vesicle Microsomal Cyclooxygenase Assay (RSV CO)
Ram seminal vesicular glands were trimed of excess fat, 50 gm diced into ice cold 0.1M potassium phosphate (pH 7.6) buffer and homoginized using a Brinkman Polytron. The suspension was centrifuged 10 min. at 10K×g (4°) and the supernatant filtered through two cheesecloth layers. The filtrate was centrifuged 160 min. at 105K×g. The supernatant was discarded and the pellet surface rinsed with a small volume of buffer. The pellets were combined in a small volume, briefly homoginized with the Polytron and frozen in 0.5 mL aliquots at -80°. The protien concentration was ~50 mg/mL. […] The thawed enzyme was diluted 1:63 with 0.125M sodium EDTA (pH 8.0) containing 50 mg/ml BSA. A substrate cofactor premix was prepared with 66 mL 14C-arachidonic acid (~20K cpm/12.5 mL) in 500 mL 0.125 M sodium EDTA (pH 8.0) plus 10 mL 50 mM hydroquinone and 10 mL 200 mM glutathione. To each sample well in the 96 well plate agents were added disolved in 0.5 mL DMSO followed by 12.5 mL of the diluted enzyme. After a 4 minute preincubation at room temperature 12.5 mL of the substrate cofactor mix was added to start the reaction. The reaction was killed after 20 minutes at room temperature by adding 25 mL methanol containing 200 mg PGE2 and 400 mg AA per mL. The entire reaction mixture was spotted onto a preadsorbent silica gel GF thin layer plate and, after air drying 45 minutes developed 12 cm in ethyl acetate:glacial acetic acid (99:1). The developed lanes were scanned for the distribution of radiolabel using a Bioscan Imaging Detector and the integrated peaks compared to standards and controls yielding percent inhibition.

[4] = tested on: LTB4 production in PMN (LO); assay: PMN LTB4 Assay (inhibition of LTB4 production in rat PMN); assay type: cell-based, male Sprague-Dawley rats; conditions: for IC50: leukotriene biosynthesis in rat PMN, mean values of at least two titrations
Procedure: Male Sprague-Dawley rats (~350 g) were injected intraperitoneally the day before use with 8 mL of 12% sodium caseinate. The next day the animals were killed by CO2 asphyxiation and the peritoneal cavity lavaged twice with 20 mL of Hanks balanced salts containing 15 mM HEPES (pH 7.4), 1.4 mM Ca^++ and 0.7 mM Mg^++ (Hepes-Hanks). The suspensions were filtered through plastic mesh and centrifuged at 260×g for 5 minutes. The cells were resuspended in 50 ml Hepes-Hanks and recentrifuged. The PMN pellets were combined and suspended at 1.25×10^7 cells/mL. The cell suspension was diluted 1:10, preincubated 5 minutes at 37° and distributed into 96 well microtiter plates with […]. The wells had previously received samples, controls, ect., in 25 mL of 0.001% fatty acid free BSA in Hepes-Hanks. The plates were incubated 2 min. at 37° and then the cells were stimulated to produce LTB4 by the addition of 25 mL of […]. After 4 minutes the plates were frozen in dry ice. The frozen plates were thawed to 4° and 25 mL aliquots removed to V-well plates. Antibody to LTB4 (50 mL) was added in and after 15 minutes at room temperature, 50 mL of ^3 H-LTB4 was added and the plates were stored overnight at 4° to allow equilibration. The next day the "free" 3HLTB4 was removed by adsorption to dextran coated charcoal ([…]/well of a 4% charcoal suspension with 0.25% Dextran T-70 in 10 mM potassium phosphate (pH 7.3) containing 1 mM EDTA and 0.25 mM thimerasol) durring a 10 minute ice temperature incubation. The charcoal was removed by a 10 minute centrifugation at 260×g. Aliquots of the supernatant were counted in a Packard 460, analyzed in a Masscomp computer (programs "filhariala and fhariasa") and the data reported as percent inhibition of LTB4 production.

[5] = tested on: LTB4 biosynthesis in intact rat PMN; conditions: cited from earlier work
cyclooxygenase [6] = conditions: cited from earlier work

Structure (SMILES)	IC50 [3] [nM]	IC50 [4] [nM]	further results
CC(C)(C)c1cc(C(=O)c2cccs2)cc(C(C)(C)C)c1O [A, 2,6-di-tert-butyl-4-(2-thienoyl) phenol]			antiinflammatory activity in animal models of inflammation [1]: novel antiinflammatory agent in several animal models of inflammation; IC50 (cyclooxygenase [2]): 500 nM; potency at inhibiting guinea pig lung 5-lipoxygenase relative to cyclooxygenase (5-lipoxygenase; compared with bovine seminal vesicle cyclooxygenase): fortyfold less potent; IC50 (5-lipoxygenase; guinea pig lung, read-out: IC50 against guinea pig lung 5-lipoxygenase): 20000 nM
Cc1coc2c(C(=O)c3cccs3)ccc(O)c12 [Compound 3, 3-Methyl-4-hydroxy-7-(2-thienoyl)benzofuran]	800	2700	
C=CCc1cc(C(=O)c2cccs2)c2occ(C)c2c1O [Compound 4, 3-methyl-4-hydroxy-5-(2-propen-1-yl)-7-(2-thienoyl)benzofuran]	5600	6700	
CCCc1cc(C(=O)c2cccs2)c2occ(C)c2c1O [Compound 5, 3-Methyl-4-hydroxy-5-propyl-7-(2-thienoyl)benzofuran]	1300	1700	
Cc1coc2c(C(C)(C)C)ccc(O)c12 [Compound 10a, 3-Methyl-4-hydroxy-7-tert-butylbenzofuran]		2100	inhibition at 1000 µg/mL ([3]; read-out: % inhibition (CO)): 1%
Cc1coc2c(C(C)(C)C)cc(C(C)(C)C)c(O)c12 [Compound 10b, 3-Methyl-4-hydroxy-5,7-di-tert-butylbenzofuran]			inhibition at 10000 µg/mL ([3]; read-out: % inhibition (CO)): 0%; inhibition at 1000 µg/mL ([4]; Rattus norvegicus, at 1 mg/ml): 37%
CCCc1cc(Cl)c2oc(Cc3ccccc3)c(C)c2c1O [Compound B]			IC50 [5]: 240 nM; potency on cyclooxygenase relative to LTB4 biosynthesis inhibition (selectivity) (cyclooxygenase [6]; RSV CO versus intact rat PMN): a hundred times less potent; IC50 (cyclooxygenase [6]; RSV CO): 25000 nM
CC(C)Cc1ccc(C(C)C(=O)O)cc1 (centres unmarked) [ibuprofen, reference compound]			activity in the CO assay [3]: displaying activity
COc1ccc2c(c1)c(CC(=O)O)c(C)n2C(=O)c1ccc(Cl)cc1 [indomethacin, reference compound]			activity in the CO assay [3]: displaying activity

More lines, main results first:

IC50 [3] [nM]	IC50 [4] [nM]	Structure (SMILES)	further results
1300	3500	Cc1coc2c(C(=O)c3ccccc3)ccc(O)c12 [Compound 6, 3-Methyl-4-hydroxy-7-benzoylbenzofuran]	
54000	600	Cc1coc2ccc(C(C)(C)C)c(O)c12 [Compound 12b, 3-Methyl-4-hydroxy-5-tert-butylbenzofuran]	
1000	1500	Cc1coc2c(C(=O)c3cccs3)cc(C(C)(C)C)c(O)c12 [Compound 14, 3-Methyl-4-hydroxy-5-tert-butyl-7-(2-thienoyl)-benzofuran]	
1300	1100	Cc1coc2c(C(=O)c3ccccc3)cc(C(C)(C)C)c(O)c12 [Compound 16, 3-Methyl-4-hydroxy-5-tert-butyl-7-benzoylbenzofuran]	
1200	4400	Cc1coc2c(C(=O)c3ccc(Cl)cc3)cc(C(C)(C)C)c(O)c12 [Compound 19, 3-Methyl-4-hydroxy-5-tert-butyl-7-p-chlorobenzoylbenzofuran]	
